Measured values from paper PMC5111741 (The European Journal of Neuroscience, 2016).

Target: T1, rat prestin labelled with GFP (Rattus norvegicus, UniProt Q9EPH0)
T1 sequence (Q9EPH0 1-744): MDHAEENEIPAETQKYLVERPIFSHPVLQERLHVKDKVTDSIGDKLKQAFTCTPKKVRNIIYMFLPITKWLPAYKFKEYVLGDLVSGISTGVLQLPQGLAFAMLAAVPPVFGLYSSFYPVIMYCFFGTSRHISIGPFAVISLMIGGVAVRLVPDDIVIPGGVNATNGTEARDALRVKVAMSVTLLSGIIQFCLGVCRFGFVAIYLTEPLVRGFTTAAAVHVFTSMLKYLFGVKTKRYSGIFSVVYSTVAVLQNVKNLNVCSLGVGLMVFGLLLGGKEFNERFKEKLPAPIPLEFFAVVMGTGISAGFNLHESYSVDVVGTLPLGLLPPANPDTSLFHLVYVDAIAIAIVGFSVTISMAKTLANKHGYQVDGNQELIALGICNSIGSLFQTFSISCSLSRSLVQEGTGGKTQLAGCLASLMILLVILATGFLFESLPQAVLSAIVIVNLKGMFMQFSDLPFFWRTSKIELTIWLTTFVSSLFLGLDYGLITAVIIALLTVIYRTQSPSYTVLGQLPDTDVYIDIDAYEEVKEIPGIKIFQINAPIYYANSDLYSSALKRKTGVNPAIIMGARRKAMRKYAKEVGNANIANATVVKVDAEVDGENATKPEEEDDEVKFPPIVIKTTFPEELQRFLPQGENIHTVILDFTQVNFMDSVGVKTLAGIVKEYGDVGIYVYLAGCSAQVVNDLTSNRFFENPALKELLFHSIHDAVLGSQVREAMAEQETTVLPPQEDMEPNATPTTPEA
Experiment: whole-cell patch clamp of transfected HEK […] cells, nonlinear capacitance
Format: cell-based
Settings: 500 μM extracellular 9-AC; intracellular 135 mM CsCl; pH 7.2; 21.5 °C

Q max reduction at 500 μM: 59 ± 19%
Compound: O=C(O)c1c2ccccc2cc2ccccc12 [9‐anthracenecarboxylic acid]
